Patent US8877778B2, “Benzofurane compounds” (Hoffmann-La Roche Inc., priority 2010, dated 2014)
Each block holds one compound with its values, some of them ahead of it.

Experiments:
human 5-HT2A receptor = human 5-HT2A receptor (Homo sapiens (Human), UniProt P28223); test: Radioligand binding ([3H]-ketanserin) to cloned receptors expressed in HEK-293 EBNA cells; settings: HEK293 EBNA cell membranes expressing human 5-HT2A
Outline: (§1)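 Membranes from transiently transfected HEK293 EBNA cells incubated 1 h at RT with ten compound concentrations (10 μM–0.1 nM). D2/D3: [3H]-spiperone ~0.7/0.5 nM, Tris–NaCl–Mg/Ca buffer pH 7.4; 5-HT2A: [3H]-ketanserin 1.1 nM, Tris–MgCl2–EGTA pH 7.4.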

human D3 receptor = human D3 receptor (Homo sapiens (Human), UniProt P35462); test: Radioligand binding ([3H]-spiperone) to cloned receptors expressed in HEK-293 EBNA cells; settings: HEK293 EBNA cell membranes expressing human D3
human D3 receptor, sequence (P35462 whole entry): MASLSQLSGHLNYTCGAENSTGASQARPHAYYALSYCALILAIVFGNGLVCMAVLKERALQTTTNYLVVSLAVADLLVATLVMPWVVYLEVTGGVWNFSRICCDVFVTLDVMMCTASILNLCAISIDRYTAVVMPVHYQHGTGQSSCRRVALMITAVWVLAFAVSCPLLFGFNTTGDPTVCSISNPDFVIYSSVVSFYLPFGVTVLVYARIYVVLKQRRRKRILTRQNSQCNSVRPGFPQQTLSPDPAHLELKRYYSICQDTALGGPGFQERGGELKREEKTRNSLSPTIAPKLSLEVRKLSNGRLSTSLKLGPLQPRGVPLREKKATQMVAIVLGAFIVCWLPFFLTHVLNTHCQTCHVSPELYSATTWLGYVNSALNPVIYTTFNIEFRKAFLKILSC
Outline: as §1

human D2 receptor = human D2 receptor (Homo sapiens (Human), UniProt P14416); test: as above; settings: HEK293 EBNA cell membranes expressing human D2
human D2 receptor, sequence (P14416 whole entry): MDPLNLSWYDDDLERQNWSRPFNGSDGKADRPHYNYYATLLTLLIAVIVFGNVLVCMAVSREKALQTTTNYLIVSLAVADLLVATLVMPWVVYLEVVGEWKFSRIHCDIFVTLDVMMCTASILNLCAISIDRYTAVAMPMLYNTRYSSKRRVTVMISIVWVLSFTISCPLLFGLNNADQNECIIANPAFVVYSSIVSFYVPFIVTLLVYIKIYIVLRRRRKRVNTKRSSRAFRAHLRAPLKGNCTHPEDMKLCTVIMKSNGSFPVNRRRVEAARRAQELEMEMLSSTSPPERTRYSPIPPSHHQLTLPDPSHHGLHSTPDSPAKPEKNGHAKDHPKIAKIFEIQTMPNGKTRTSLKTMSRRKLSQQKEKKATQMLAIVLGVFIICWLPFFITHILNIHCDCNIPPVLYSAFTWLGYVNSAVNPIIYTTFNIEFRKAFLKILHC
Outline: as §1

human 5-HT2A receptor, sequence (P28223 whole entry): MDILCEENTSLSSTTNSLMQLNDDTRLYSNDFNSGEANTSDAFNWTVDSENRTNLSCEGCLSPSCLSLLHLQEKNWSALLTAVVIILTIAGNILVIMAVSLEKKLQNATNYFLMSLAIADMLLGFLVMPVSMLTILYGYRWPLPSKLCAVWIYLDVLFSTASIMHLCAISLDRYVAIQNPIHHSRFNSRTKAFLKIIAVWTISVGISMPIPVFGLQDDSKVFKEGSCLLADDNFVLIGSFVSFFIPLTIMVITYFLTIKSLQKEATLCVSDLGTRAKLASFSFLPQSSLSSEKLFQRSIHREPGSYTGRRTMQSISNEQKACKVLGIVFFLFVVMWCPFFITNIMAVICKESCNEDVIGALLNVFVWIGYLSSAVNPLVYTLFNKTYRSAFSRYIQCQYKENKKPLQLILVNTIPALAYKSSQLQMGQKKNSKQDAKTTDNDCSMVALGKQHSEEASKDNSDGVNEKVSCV

SMILES: O=C(Cc1noc2ccccc12)N[C@H]1CC[C@H](CCN2CCC(c3cccc4c3CCO4)CC2)CC1 [Example 93, trans-2-Benzo[d] isoxazol-3-yl-N-(4-{2-[4-(2,3-dihydro-benzofuran-4-yl)-piperidin-1-yl]-ethyl}-cyclohexyl)-acetamide]
Ki (human 5-HT2A receptor): 30.7 nM | melting point: 214 °C | Ki (human D3 receptor): 3.21 nM | Ki (human D2 receptor): 244 nM

SMILES: O=C(N[C@H]1CC[C@H](CCN2CCC(c3cccc4c3CCO4)CC2)CC1)c1ccc2c(c1)OCO2 [Example 79, Benzo[1,3]dioxole-5-carboxylic acid trans-(4-{2-[4-(2,3-dihydro-benzofuran-4-yl)-piperidin-1-yl]-ethyl}-cyclohexyl)-amide]
Ki (human 5-HT2A receptor): 23 nM | melting point: 233 °C | Ki (human D3 receptor): 3.5 nM | Ki (human D2 receptor): 809 nM

SMILES: O=C(N[C@H]1CC[C@H](CCN2CCC(c3cccc4c3CCO4)CC2)CC1)C1(O)CC1 [Example 28, 1-Hydroxy-cyclopropanecarboxylic acid trans-(4-{2-[4-(2,3-dihydro-benzofuran-4-yl)-piperidin-1-yl]-ethyl}-cyclohexyl)-amide]
Ki (human 5-HT2A receptor): 9.3 nM | melting point: 164 °C | Ki (human D3 receptor): 8.4 nM | Ki (human D2 receptor): 299 nM

SMILES: CC(C)CC(=O)N[C@H]1CC[C@H](CCN2CCC(c3cccc4c3CCO4)CC2)CC1 [Example 24, trans-N-(4-{2-[4-(2,3-Dihydro-benzofuran-4-yl)-piperidin-1-yl]-ethyl}-cyclohexyl)-3-methyl-butyramide]
Ki (human 5-HT2A receptor): 31.1 nM | melting point: 197 °C | Ki (human D3 receptor): 5.2 nM | Ki (human D2 receptor): 213 nM

SMILES: CC(C)(O)C(=O)N[C@H]1CC[C@H](CCN2CCC(c3cccc4c3CCO4)CC2)CC1 [Example 38, trans-N-(4-{2-[4-(2,3-Dihydro-benzofuran-4-yl)-piperidin-1-yl]-ethyl}-cyclohexyl)-2-hydroxy-2-methyl-propionamide]
Ki (human 5-HT2A receptor): 8 nM | melting point: 163 °C | Ki (human D3 receptor): 34.9 nM | Ki (human D2 receptor): 495 nM

SMILES: CN1CCN(c2ccc(C(=O)N[C@H]3CC[C@H](CCN4CCC(c5cccc6c5CCO6)CC4)CC3)cc2)CC1 [Example 44, trans-N-(4-{2-[4-(2,3-Dihydro-benzofuran-4-yl)-piperidin-1-yl]-ethyl}-cyclohexyl)-4-(4-methyl-piperazin-1-yl)-benzamide]
Ki (human 5-HT2A receptor): 8.4 nM | melting point: 241 °C | Ki (human D3 receptor): 6 nM | Ki (human D2 receptor): 147 nM

SMILES: O=C(CC1CCOCC1)N[C@H]1CC[C@H](CCN2CCC(c3cccc4occc34)CC2)CC1 [Example 4, trans-N-{4-[2-(4-Benzofuran-4-yl-piperidin-1-yl)-ethyl]-cyclohexyl}-2-(tetrahydro-pyran-4-yl)-acetamide]
Ki (human 5-HT2A receptor): 9 nM | melting point: 181 °C | Ki (human D3 receptor): 5.7 nM | Ki (human D2 receptor): 219 nM

SMILES: CC(=O)N[C@H]1CC[C@H](CCN2CCC(c3cccc4occc34)CC2)CC1 [Example 1, trans-N-{4-[2-(4-Benzofuran-4-yl-piperidin-1-yl)-ethyl]-cyclohexyl}-acetamide]
Ki (human 5-HT2A receptor): 6.8 nM | melting point: 167 °C | Ki (human D3 receptor): 2.9 nM | Ki (human D2 receptor): 187 nM

SMILES: O=C(N[C@H]1CC[C@H](CCN2CCC(c3cccc4c3CCO4)CC2)CC1)c1ccc(N2CCS(=O)(=O)CC2)cc1 [Example 77, trans-N-(4-{2-[4-(2,3-Dihydro-benzofuran-4-yl)-piperidin-1-yl]-ethyl}-cyclohexyl)-4-(1,1-dioxo-1λ6-thiomorpholin-4-yl)-benzamide]
Ki (human 5-HT2A receptor): 33 nM | melting point: 282 °C | Ki (human D3 receptor): 5.62 nM | Ki (human D2 receptor): 329 nM

SMILES: CS(=O)(=O)CC(=O)N[C@H]1CC[C@H](CCN2CCC(c3cccc4occc34)CC2)CC1 [Example 11, trans-N-{4-[2-(4-Benzofuran-4-yl-piperidin-1-yl)-ethyl]-cyclohexyl}-2-methanesulfonyl-acetamide]
Ki (human 5-HT2A receptor): 5.3 nM | melting point: 201 °C | Ki (human D3 receptor): 2.3 nM | Ki (human D2 receptor): 154 nM

SMILES: O=C(N[C@H]1CC[C@H](CCN2CCC(c3cccc4c3CCO4)CC2)CC1)c1ccc(-c2ccccc2)cc1 [Example 91, Biphenyl-4-carboxylic acid trans-(4-{2-[4-(2,3-dihydro-benzofuran-4-yl)-piperidin-1-yl]-ethyl}-cyclohexyl)-amide]
Ki (human 5-HT2A receptor): 28.1 nM | melting point: 241 °C | Ki (human D3 receptor): 7.81 nM | Ki (human D2 receptor): 501 nM

Ki (human 5-HT2A receptor): 24.6 nM | melting point: 211 °C | Ki (human D3 receptor): 5.5 nM | Ki (human D2 receptor): 135 nM
SMILES: O=C(N[C@H]1CC[C@H](CCN2CCC(c3cccc4c3CCO4)CC2)CC1)C1CCOC1 (mixture of isomers) [Example 52, (RS)-Tetrahydro-furan-3-carboxylic acid trans-(4-{2-[4-(2,3-dihydro-benzofuran-4-yl)-piperidin-1-yl]-ethyl}-cyclohexyl)-amide]

SMILES: CC(C)=CC(=O)N[C@H]1CC[C@H](CCN2CCC(c3cccc4c3CCO4)CC2)CC1 [Example 84, 3-Methyl-but-2-enoic acid trans-(4-{2-[4-(2,3-dihydro-benzofuran-4-yl)-piperidin-1-yl]-ethyl}-cyclohexyl)-amide]
Ki (human 5-HT2A receptor): 59.8 nM | melting point: 177 °C | Ki (human D3 receptor): 6.36 nM | Ki (human D2 receptor): 73.9 nM

SMILES: O=C(N[C@H]1CC[C@H](CCN2CCC(c3ccc(F)c4occc34)CC2)CC1)C1CCOCC1 [Example 65, Tetrahydro-pyran-4-carboxylic acid trans-(4-{2-[4-(7-fluoro-benzofuran-4-yl)-piperidin-1-yl]-ethyl}-cyclohexyl)-amide]
Ki (human 5-HT2A receptor): 11.6 nM | melting point: 208 °C | Ki (human D3 receptor): 34 nM | Ki (human D2 receptor): 361 nM

SMILES: O=C(CCC(F)(F)F)N[C@H]1CC[C@H](CCN2CCC(c3cccc4c3CCO4)CC2)CC1 [Example 74, trans-N-(4-{2-[4-(2,3-Dihydro-benzofuran-4-yl)-piperidin-1-yl]ethyl}-cyclohexyl)-4,4,4-trifluoro-butyramide]
Ki (human 5-HT2A receptor): 119 nM | melting point: 200 °C | Ki (human D3 receptor): 7.64 nM | Ki (human D2 receptor): 253 nM

SMILES: O=C(N[C@H]1CC[C@H](CCN2CCC(c3cccc4c3CCO4)CC2)CC1)C1CCOCC1 [Example 7, Tetrahydro-pyran-4-carboxylic acid trans-(4-{2-[4-(2,3-dihydro-benzofuran-4-yl)-piperidin-1-yl]-ethyl}-cyclohexyl)-amide]
Ki (human 5-HT2A receptor): 12.8 nM | melting point: 227 °C | Ki (human D3 receptor): 22.8 nM | Ki (human D2 receptor): 716 nM

SMILES: CC(C)(C)CC(=O)N[C@H]1CC[C@H](CCN2CCC(c3cccc4c3CCO4)CC2)CC1 [Example 59, trans-N-(4-{2-[4-(2,3-Dihydro-benzofuran-4-yl)-piperidin-1-yl]ethyl}-cyclohexyl)-3,3-dimethyl-butyramide]
Ki (human 5-HT2A receptor): 54.1 nM | melting point: 193 °C | Ki (human D3 receptor): 6 nM | Ki (human D2 receptor): 394 nM

SMILES: O=C(N[C@H]1CC[C@H](CCN2CCC(c3cccc4c3CCO4)CC2)CC1)c1ccc(F)cc1 [Example 35, trans-N-(4-{2-[4-(2,3-Dihydro-benzofuran-4-yl)-piperidin-1-yl]-ethyl}-cyclohexyl)-4-fluoro-benzamide]
Ki (human 5-HT2A receptor): 14.2 nM | melting point: 213 °C | Ki (human D3 receptor): 4.9 nM | Ki (human D2 receptor): 73.7 nM

SMILES: Cc1ccc(C(=O)N[C@H]2CC[C@H](CCN3CCC(c4cccc5c4CCO5)CC3)CC2)cn1 [Example 42, trans-N-(4-{2-[4-(2,3-Dihydro-benzofuran-4-yl)-piperidin-1-yl]-ethyl}-cyclohexyl)-6-methyl-nicotinamide]
Ki (human 5-HT2A receptor): 25.4 nM | melting point: 202 °C | Ki (human D3 receptor): 10.2 nM | Ki (human D2 receptor): 151 nM

SMILES: O=C(CC(F)(F)F)N[C@H]1CC[C@H](CCN2CCC(c3cccc4c3CCO4)CC2)CC1 [Example 18, trans-N-(4-{2-[4-(2,3-Dihydro-benzofuran-4-yl)-piperidin-1-yl]ethyl}-cyclohexyl)-3,3,3-trifluoro-propionamide]
Ki (human 5-HT2A receptor): 34.2 nM | melting point: 197 °C | Ki (human D3 receptor): 4.4 nM | Ki (human D2 receptor): 345 nM

SMILES: O=S(=O)(N[C@H]1CC[C@H](CCN2CCC(c3cccc4c3CCO4)CC2)CC1)c1ccccc1 [Example 49, trans-N-(4-{2-[4-(2,3-Dihydro-benzofuran-4-yl)-piperidin-1-yl]-ethyl}-cyclohexyl)-benzenesulfonamide]
Ki (human 5-HT2A receptor): 79.7 nM | melting point: 130 °C | Ki (human D3 receptor): 5.1 nM | Ki (human D2 receptor): 138 nM

SMILES: CC(C)(C)C(=O)N[C@H]1CC[C@H](CCN2CCC(c3cccc4c3CCO4)CC2)CC1 [Example 58, trans-N-(4-{2-[4-(2,3-Dihydro-benzofuran-4-yl)-piperidin-1-yl]ethyl}-cyclohexyl)-2,2-dimethyl-propionamide]
Ki (human 5-HT2A receptor): 50.6 nM | melting point: 192 °C | Ki (human D3 receptor): 65.1 nM | Ki (human D2 receptor): 378 nM

SMILES: O=C(N[C@H]1CC[C@H](CCN2CCC(c3cccc4c3CCO4)CC2)CC1)c1ccc(-n2cccc2)cc1 [Example 90, trans-N-(4-{2-[4-(2,3-Dihydro-benzofuran-4-yl)-piperidin-1-yl]-ethyl}-cyclohexyl)-4-pyrrol-1-yl-benzamide]
Ki (human 5-HT2A receptor): 30.4 nM | melting point: 228 °C | Ki (human D3 receptor): 10.5 nM | Ki (human D2 receptor): 85.1 nM

SMILES: O=C(N[C@H]1CC[C@H](CCN2CCC(c3cccc4c3CCO4)CC2)CC1)c1ccc(N2CCOCC2)nc1 [Example 46, trans-N-(4-{2-[4-(2,3-Dihydro-benzofuran-4-yl)-piperidin-1-yl]-ethyl}-cyclohexyl)-6-morpholin-4-yl-nicotinamide]
Ki (human 5-HT2A receptor): 27.6 nM | melting point: 228 °C | Ki (human D3 receptor): 16.3 nM | Ki (human D2 receptor): 920 nM

SMILES: O=C(N[C@H]1CC[C@H](CCN2CCC(c3cccc4c3CCO4)CC2)CC1)C1CC1 [Example 29, Cyclopropanecarboxylic acid trans-(4-{2-[4-(2,3-dihydro-benzofuran-4-yl)-piperidin-1-yl]-ethyl}-cyclohexyl)-amide]
Ki (human 5-HT2A receptor): 23.6 nM | melting point: 208 °C | Ki (human D3 receptor): 8.9 nM | Ki (human D2 receptor): 151 nM
